# Assay: sensory evaluation of purified components for salty taste enhancing effect
# Details: components purified from Jinhua dry-cured ham crude peptides (Sephadex G-15, DEAE anion column); sensory evaluation with electronic tongue-assisted analysis
# Method: The crude polypeptides obtained in S2 were dissolved in pure water, filtered by 0.22 μm of aqueous phase membrane, and then loaded onto a Sephadex G-15 gel filtration column (3.0×200 cm) for purification at 25° C. Specific chromatographic parameters: the sample mass concentration was 40 mg/mL; the injection volume was 200 μL; the eluent was 0.01 M of hydrochloric acid buffer solution at a flow rate of 0.5 mL/min, the primary UV ultraviolet detection wavelength was 214 nm, and the secondary UV ultraviolet detection wavelength was 250 nm. All purified components were subject to a sensory evaluation according to their respective chromatographic peaks. […]
substance,measurement,value
Asp-Leu [Asp-Leu (DL)],salty taste enhancing effect,optimal salty taste enhancing effect
